Consider 22 compounds from article PMC10306101, “Substrate-derived Sortase A inhibitors: targeting an essential virulence factor of Gram-positive pathogenic bacteria” (Chemical Science, 2023).

For assay [1], the target named is T1, SrtA (Staphylococcus aureus, UniProt Q2FV99).
T1 construct: His6 (N); made in house; host or cells: E. coli BL21, pET21b plasmid
The experiment in a line: biochemical. Also noted: species or system S. aureus. Conditions: for IC50: IC50, inhibitor 1 μM to 1500 μM, corrected for molar extinction coefficient; for FRET inhibition: 200 nM SrtA, 200 μM inhibitor, HEPES buffer; for FRET inhibition / inhibition at 200 µM: mean ± SE, triplicate; for inhibition at 200 µM: read-out: FRET inhibition, 200 nM SrtA, 200 μM inhibitor, HEPES buffer. On the procedure:
In order to screen the activity of SrtA inhibitors, a FRET-based functional assay was used which employs an internally quenched fluorescent (IQF) substrate, Abz-LPETGK(Dnp)-NH2 (Fig. S37a ^†).[5] […] 5-((C4-Nitrobenzyl)thio)-1,3,4-thiadiazol-2-amine was used as a reference inhibitor in the experiment.[42] […]
Fluorescence resonance energy transfer assay
For the FRET assay, the compound 5-((4-nitrobenzyl) thio)-1,3,4-thiadiazol-2-amine was used as a reference and prepared by dissolving 3 µL of the available stock (10 mM) in […] HEPES and 1% DMSO to afford a 300 µM stock concentration for the assay. This reference compound […]
FRET assay was performed with an internally quenched fluorogenic (IQF) substrate to determine the inhibitory activity of the synthesized peptidomimetics. The assay was performed in a 30 μl reaction mixture in HEPES buffer (50 mM HEPES, 150 mM NaCl, 5 mM CaCl2, 0.05% Tween20, pH 7.5). SrtA solution (200 nM) was preincubated with compounds (200 μM) for 15 min at 22 °C followed by the addition of the substrate solution (25 μM Abz-LPETGK(Dnp)-NH2, 5 mM H-Gly3-OH, final assay concentration) in the same buffer. The cleavage of the Abz/Dnp-substrate was quantified by an increase in the fluorescence signal.
The fluorescence signal was monitored each minute for 45 minutes and plotted to obtain the fluorescence rate as a line curve. The assay was performed in 384 well Corning NBS microplates (flat bottom, no lid, low flange, non-binding surface, non-sterile, white polystyrene).
Fluorescence intensity was measured at emission and excitation wavelengths of […] using a Spectramax iD5 plate reader (Molecular Devices, San Jose, CA, USA). Triplicate measurements were taken for each data point to ensure the reproducibility of the results. The average value of the fluorescence signal readouts was plotted against time over […] for each compound to produce a line curve using Origin. The reference compound was used in the experiment to act as a positive control. The slope of each compound curve (Sx) and the slope of the substrate (S0) were extracted using the linear fit function in Microsoft Origin 2019. The percent inhibition was calculated according to the following equation: inhibitory rate = (1 – Sx/S 0) × 100%. For IC50 values, Sx values at different concentrations were plotted against log transformed concentration values and fitted with a sigmodial fit using the DoseResp function using Origin. The bottom asymptote of the dose-response curve was fixed at 0. The data were reported as mean ± SE%. […]

Assay [2] has as its system S. aureus strain CCUG10778 biofilm. Conditions: BHI, rabbit plasma coated plate.
Assay [3] relates to S. aureus strain CCUG10778. As to the kind of experiment: Growth profiling of S. aureus (absorbance at 600 nm). Type of assay: cell-based. The conditions noted are these: 2 to 128 μg mL^−1, TSB medium, up to 48 hours. On the procedure:
To assess whether our most promising compounds have a possibility of being potential antivirulent compounds, they were tested with pathogenic S. aureus bacteria to assess the peptidomimetic inhibitors for their ability to inhibit bacterial growth. Firstly, our compounds were incubated with S. aureus bacteria in a 96-well plate in Tryptic Soy Broth (TSB) medium, while we also included the reference compound used in the single-point in vitro inhibition studies. So far, the covalent binding thiadiazol reference compound was not tested in this respect, but was one of the most promising compounds identified in an earlier screening campaign.[42] The inhibitors were added at various concentrations, ranging from 2 μg mL^−1 to 128 μg mL^−1, and the absorbance at 600 nm was measured as an indication of their optical density (OD600) and by that the bacteria's ability to propagate in liquid media. In the negative control experiments, the bacteria consistently reached an OD600 of 0.6 between 6 and 12 hours (Fig. 3). […]
For the growth profiling experiments the S. aureus strain CCUG10778 was cultured overnight in sterile TSB medium and diluted 1:100 by adding 1 μL into TSB medium in a sterilized, clear polystyrene 96-well plate to a final assay volume of 100 μL. Subsequently, peptides were added to the bacteria from filter sterilized stocks in MQ-H2O to give 2, 8, 32 and 128 μg/ml final concentrations. Then, bacteria were incubated at 37 °C for 3, 6, 12, 24, 36 or 48 hours and their absorbance was measured at 600 nm using a Varioskan Lux microplate reader (Thermo Fisher Scientific, Waltham, MA, USA). All individual samples were carried out in triplicate. […]
Then, bacteria […]
were incubated at 37 °C for 24 hours and centrifuged for 3 minutes at 3000 rpm in an Eppendorf Microstar 30r centrifuge. The supernatant was discarded and the cells were washed once with sterilized PBS and centrifuged. 100 μL PBS-T (PBS + 0.1% Triton-X) was added to the cells for 15 minutes to induce cell membrane permeabilization. After removal of the PBS-T by centrifugation, 100 μL of 5 μM Sytox Green (Invitrogen, Waltham, MA, USA) solution in PBS

Assay [4] deals with SrtA. Conditions: cited from earlier work.
The target of assay [5] is T1, SrtA. Format: biochemical, S. aureus. The conditions noted are these: 200 nM SrtA, inhibitor at 10 μM (detector oversaturation at 200 μM).
For the next assay, the system named is S. aureus. The experiment in a line: Sytox Green fluorescence measurement of S. aureus incubated with inhibitors. Format: cell-based. The conditions noted are these: 24 hours, control 294.0 ± 0.1. The method, then: To achieve this, S. aureus was again incubated with our peptidomimetic inhibitors, specifically, 18, 22, 23 and 24 at 8, 32 and 128 μg mL^−1 and harvested after 24 hours to ensure the bacteria reach their growth plateau. Peptide 24 was included to confirm the influence of the N-terminal benzyl group. The bacterial cells were permeabilized and their […] were labelled using Sytox Green and subsequently their fluorescence was measured quantitatively. […] Bacteria incubated with 32 and 128 μg mL^−1 of 18 as well as 128 μg mL^−1 of 22 were also imaged using fluorescence microscopy (Fig. 4). In the control sample, planktonic bacteria could be abundantly observed (Fig. 4a). While it was hard to distinguish the microscopy images for the less strong inhibition (Fig. 4b and c), it became evident from the sample with 128 μg mL^−1 of 18 that visually bacterial growth was affected as well (Fig. 4d) where the bacteria were much more sparsely distributed in the sample. […]
For the fluorescence experiments S. aureus was cultured overnight in sterile TSB medium and diluted 1:250 by adding 2.5 μL bacterial culture into TSB medium in sterilized 1.5 mL Eppendorf tubes to a final volume of 500 μL. Subsequently, peptides were added to the bacteria from filter sterilized stocks in MQ-H2O to give 8, 32 and 128 μg/ml final concentrations. Then, bacteria were incubated at 37 °C for 24 hours and centrifuged for 3 minutes at 3000 rpm in an Eppendorf Microstar 30r centrifuge. The supernatant was discarded and the cells were washed once with sterilized PBS and centrifuged. 100 μL PBS-T (PBS + 0.1% Triton-X) was added to the cells for 15 minutes to induce cell membrane permeabilization. After removal of the PBS-T by centrifugation, 100 μL of 5 μM Sytox Green (Invitrogen, Waltham, MA, USA) solution in PBS […]
was added and the cells were stained for 30 minutes, centrifuged and washed with PBS twice.
For the fluorescence measurements, the cells were resuspended with 100 μL of PBS and added in a sterilized, white plastic polystyrene 96-well plate and their fluorescence was measured by exciting the samples at 488nm and measuring the fluorescence intensity at 533 nm in a microplate reader. All individual samples were carried out in duplicate. For the fluorescence microscopy experiments, the cells were treated in the same, but resuspended in 10 μL of PBS and 5 μL of bacterial suspension was spotted on a glass target plate dipped in a melted solution of 1.2% agarose in Tris-HCl (50 mM) to ensure fixation of the sample. The sledes were covered by a cover glass and observed on an Axio Imager Z2m fluorescence microscope (Zeiss, Jena, Germany) at 100 times magnification at the emission wavelength of […]
Biofilm inhibition assays
For the biofilm inhibition experiments the S. aureus strain CCUG10778 was cultured overnight in sterile BHI broth. A sterilized, clear polystyrene 96-well plate was prepared by coating with plasma by addition of 20% of final assay volume rabbit plasma to the wells and incubating overnight at 4 °C. Then, the cultured strain was diluted 1:100 by adding 2 μL into BHI medium on the plasma coated plate to a total volume of 200 μL. Subsequently, peptides were added to the bacteria from filter sterilized stocks in MQ-H2O to give 8, 32 and 128 μg/ml final concentrations and incubated for 12 hours at 37 °C without shaking. The supernatant was removed and the wells were rinsed with PBS and 100 μL of 1% crystal violet solution (diluted in PBS) was added and the biofilms were stained for 10 minutes. The wells were washed with PBS twice and 200 μL of a 95% ethanol solution in water was added to solubilize the cells for 30 minutes. 100 μL was transferred into a new 96-well plate and the absorbance measured at 595 nm using a Varioskan Lux microplate reader. All individual samples were carried out in […]
All computational studies and analysis steps were performed employing the YASARA molecular modeling program.6, 7
Molecular graphics were created with YASARA (www.yasara.org) and POVRay […]

Several values for one entry are separate records, joined by “and”; a condition that tells them apart may be missing. Equal values may be shown once. Read-outs that look alike come from different tables or passages of the source. Non-standard residues stand in square brackets, D forms with d. Residues, ends and D or L forms follow the SMILES beside them. *: point of attachment. Bz = O=C(c1ccccc1)*; Sar = CNCC(=O)O

T1 sequence (Q2FV99 60-206): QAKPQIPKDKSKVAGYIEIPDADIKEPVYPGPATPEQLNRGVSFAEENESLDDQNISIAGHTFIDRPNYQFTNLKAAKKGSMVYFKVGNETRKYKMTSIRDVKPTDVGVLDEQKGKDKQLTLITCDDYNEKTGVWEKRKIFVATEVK

Usually IC50 stands for the midpoint of a concentration-inhibition curve. For H-LPETP-NH2 [Compound 7, LPETP], at SrtA [1], 136.3 ± 1.2 µM corresponded to half-maximal inhibition (IC50).

Consider GTEPL [Compound 9], for which the FRET inhibition at SrtA [1] is 38% and 37.7 ± 3.1%. On the same count and under the same terms, with LPRDP [Compound 20] the figure was 32% and 32.3 ± 8.7%. For orientation: inhibition means the change of the read-out against control, counted positive when it falls. With `CC(C)C[C@H](N)C(=O)N1CCC[C@H]1C(=O)N[C@@H](CCCNC(=N)N)C(=O)N[C@@H](CC(=O)O)C(=O)N(C)CC(N)=O` [Compound 5, LPRD-Sar] (H-LPRD[Sar]-NH2), at SrtA [1], the FRET inhibition came to 68.5 ± 2.6%, inhibition was half-maximal at 18.9 ± 1.2 µM (IC50) and the inhibition at 200 µM was 69%.

As to `CC(C)C[C@H](NC(=O)c1ccccc1)C(=O)N1CCC[C@H]1C(=O)N[C@@H](CCCNC(=N)N)C(=O)N[C@@H](CC(=O)O)C(=O)N(C)CC(N)=O` [Compound 18, BzLPRDSar] (Bz-LPRD[Sar]-NH2), the biofilm inhibition is 52% in assay [2] (8 μg mL^−1, 12 hours); 73% in assay [2] (32 μg mL^−1, 12 hours); 95% in assay [2] (128 μg mL^−1, 12 hours). For the same compound, on SrtA [1], half-maximal inhibition (IC50) required 57.4 ± 1.1 µM. The inhibition at 200 µM at SrtA [1] worked out at 108 ± 6.9%. For the compound `Nc1nnc(SCc2ccc([N+](=O)[O-])cc2)s1` [Reference (0), 5-((4-nitrobenzyl)thio)-1,3,4-thiadiazol-2-amine, reference compound], the FRET inhibition at SrtA [1] was found to be 77.1 ± 4.1%. Besides, the “effect on bacterial growth (absorbance plateau, OD600)” value in assay [3] is on record as “did not show any activity”. Moreover, the 50% inhibitory concentration (IC50) in the assay with SrtA [4] (reported covalent inhibitor, ref 42 (supplement ref 4)) was 26 ± 0.7 µM; in the assay on SrtA [4] (reported covalent inhibitor, ref 42 (supplement ref 4), listed as 5-((C4-Nitrobenzyl)thio)-1,3,4-thiadiazol-2-amine), about 26 µM. Consider LPRDA-Ado [Compound 2], for which, on SrtA [1], the FRET inhibition was found to be 30.4 ± 2.8%. The same measure, in the same setting: the value for BzLPRDA [Compound 11] was 37% and 37.2 ± 3.1%; that for Ado-LPRDA [Compound 3] was 22.6 ± 2.8%.

PEG2000-LPRDA-NH2: the concentration for half-maximal inhibition (IC50) in the assay on SrtA [4] (reported SrtA inhibitor) was 10.6 µM. For the compound KSFLPATGGAE [Compound 8], in the assay with SrtA [1], the FRET inhibition is 18% and 18.1 ± 2.9%. As to 2NapLPRDA [Compound 13], on SrtA [5], the FRET inhibition was 47% and 47.4 ± 1.1 (at 10 μM) %. Moreover, in assay [3], the “effect on bacterial growth (absorbance plateau, OD600)” value is “did not have any effect”. Take H2N-LPRDA-OH [Compound 1]: the FRET inhibition at SrtA [1] is on record as 29.2 ± 2.6%. Consider `CC(C)C[C@H](NC(=O)c1ccccc1)C(=O)N1CCC[C@H]1C(=O)N[C@@H](CCCNC(=N)N)C(=O)N[C@@H](CC(=O)O)C(=O)N[C@@H](Cc1ccccc1)C(N)=O` [Compound 23, BzLPRDF] (Bz-LPRDF-NH2), for which, on SrtA [1], the half-maximal inhibitory concentration (IC50) stood at 114 ± 1.3 µM and the inhibition at 200 µM came to 113 ± 26%. For the compound CbzLPRDA [Compound 14], the FRET inhibition on SrtA [1] was determined as 17.0 ± 2.8%. The same measure, in the same setting: with ELPRDA [Compound 27] the figure was 26% and 26.2 ± 2.0%. Compound H-LPRDF-NH2 [Compound 24, LPRDF] had an IC50 against SrtA [1] of 136.9 ± 1.2 µM. At SrtA [1], the inhibition at 200 µM was 42.2 ± 6%. Besides, the “Fluorescence value (Sytox Green, 533 nm)” value turned out to be 315.7 ± 0.6 in the assay with S. aureus (8 μg/ml), 299.9 ± 1.2 with S. aureus (32 μg/ml) and 283.0 ± 0.9 with S. aureus (128 μg/ml). For the compound LPET-Sar [Compound 6], at SrtA [1], the FRET inhibition turned out to be 19.4 ± 2.6%. Same read-out and setting: with ChLPRDA [Compound 12] the figure was 21.6 ± 4.2%; with BzLPRDP [Compound 21], 31.0 ± 7.6%; with BzLPETP [Compound 19], 15.1 ± 3.8%. As for AcLPRDA [Compound 10], the FRET inhibition on SrtA [1] was determined as 20.7 ± 2.9%.
